# Test system: heterotrophic micro-organisms
# Assay: BOD analyses with increasing perchlorate concentrations (respirometric, activated sludge)
# Type: cell-based
# Settings: activated sludge from a MBBR reactor; perchlorate 5 and 35 mg L^-1; data not shown
# Method: BOD analyses : For these measurements, the range was 0 - 400 mgO2 L^-1, the BOD test solutions were composed of: 141.6 mL of a mixture of carboxylic acids: oxalic acid (625 mg L^-1), maleic acid (137 mg L^-1), glyoxylic acid (261 mg L^-1), and formic acid oxalic acid (321 mg L^-1); 10 mL of a buffer solution: KH2PO4 (8.6 g L^-1), K2HPO4 (21.75 g L^-1), (Na2HPO4,2H2O) (33.4 g L^-1), NH4Cl (1.7 g L^-1); 0.4 mL of- Allylthiourea (C4H8N2S) (1 g L^-1), and 1 mL of activated sludge from a MBBR reactor who had been previously fed with the raw MLL for 4 months, completed with 11 mL concentrate solutions of perchlorate to obtain respective concentrations in perchlorate of 5 and 35 mg L^-1 in the final 164 mL liquid volume.
# BOD analyses with increasing perchlorate concentrations have been performed following a similar procedure as previously explained in the last section. […]
smiles,measurement,value
[O-][Cl+3]([O-])([O-])O [perchlorate],effect on heterotrophic micro-organisms,inihibiting effect
